Laboratory results taken from patent US20230027066A1 (Urovant Sciences GmbH, priority 2019, published 2023).

Columns and labels:
[1] = test system: men and women with OAB; test: Phase 2b study of vibegron in OAB, Part 1, efficacy at Week 8 (voiding diary); assay type: in vivo, human; conditions: tolterodine ER 4 mg
Text: Part 2 was designed to continue to assess the safety and efficacy of concomitant dosing. […] Subjects in both Part 1 and Part 2 had the option of enrolling in a 1-year extension. Participants were required to keep a voiding diary, recording the occurrence of each strong urge, total incontinence, and urge incontinence episode. Efficacy data for Part 1 and Part 2 are summarized herein.
The total number of urgency incontinence episodes must have exceeded the total number of stress incontinence episodes for all subjects.

[2] = test system: men and women with overactive bladder; test: Phase 3 study (75 mg), patient-reported outcomes (OAB-q LF, PGI); assay type: in vivo, human; set-up: OAB-q sleep score, improvement greater than placebo / HRQL Total Score, improvement greater than placebo / OAB-q HRQL Total Score, Active - Placebo LS Means Difference: scale not given here
Text: Patients completed paper questionnaires at the site at the start of each required study visit to assess patient-perceived symptom relief, symptom bother, and health-related quality of life at the study visits. […] These included the following questionnaires:
1. Global Impression Items include Patient Global Impression of Severity (PGI-Severity), Patient Global Impression of Control (PGI-Control), Patient Global Impression of Frequency (PGI-Frequency), Patient Global Impression of Leakage (PGI-Leakage), and Patient Global Impression of Change (PGI-Change).
2. Overactive Bladder Questionnaire (OAB-q long form [OAB-q LF], 1-week recall) is a 33-item patient-administered, disease-specific questionnaire that includes a Health-Related QoL (HRQL) scale (25 items) and a Symptom Bother Scale (8 items). The HRQL is a multidomain concept that represents the patient's general perception of the effect of illness and treatment on physical, psychological, and social aspects of life. […] In the present study, the HRQL scale is divided into 4 subscales: Coping, Concern/Worry, Sleep, and Social Interaction. The Coping subscale (also referred to as the coping domain score) was a secondary endpoint, with items scored from 1 (none of the time) to 6 (all the time), with higher scores indicating better QoL. The HRQL total score is calculated by summating the individual HRQL subscale scores. The Symptom Bother Scale items are scored from 1 (not at all) to 6 (a very great deal), with higher Symptom Bother scores indicating greater symptom severity. The instrument was developed and validated in both continent and incontinent OAB patients, including both men and women.
With the exception of the symptom bother score, a responder was defined as having a change from baseline ≥10. For symptom bother score, a responder was defined as having a change from baseline […]. A higher proportion of patients represented a favorable response.

[3] = 50% Total Incontinence Responders, Week 12
[4] = Week 12, responder = change from baseline ≥10

Cc1ccc(O)c([C@H](CCN(C(C)C)C(C)C)c2ccccc2)c1 [Tolterodine ER, tolterodine, reference compound]
Change from baseline in volume voided per micturition at Week 8, difference from placebo in LS means [1]: 30.77 mL | Micturitions: adjusted difference from placebo at Week 8, difference in LS means (MMRM) [1]: −0.6 | Micturitions: change from baseline at Week 8, mean [1]: −1.73 | Micturitions: daily number of events, Week 8 mean [1]: 9.24 | Micturitions: difference from placebo at Week 8, difference in LS means (cLDA) [1]: −0.54 | Urgency episodes: adjusted difference from placebo at Week 8, difference in LS means (MMRM) [1]: −1.0 | Urgency episodes: change from baseline at Week 8, mean [1]: −2.52 | Urgency episodes: daily number of events, Week 8 mean [1]: 3.91 | Urgency episodes: difference from placebo at Week 8, difference in LS means (cLDA) [1]: −0.94 | Total incontinence episodes: adjusted difference from placebo at Week 8, difference in LS means (MMRM) ([1]; OAB Wet subjects): −0.3 | Total incontinence episodes: change from baseline at Week 8, mean ([1]; OAB Wet subjects): −1.80 | Total incontinence episodes: daily number of events, Week 8 mean ([1]; OAB Wet subjects): 1.32 | Total incontinence episodes: difference from placebo at Week 8, difference in LS means (cLDA) ([1]; OAB Wet subjects): −0.34 | Urgency incontinence episodes: adjusted difference from placebo at Week 8, difference in LS means (MMRM) ([1]; OAB Wet subjects): −0.4 | Urgency incontinence episodes: change from baseline at Week 8, mean ([1]; OAB Wet subjects): −1.67 | Urgency incontinence episodes: daily number of events, Week 8 mean ([1]; OAB Wet subjects): 1.15 | Urgency incontinence episodes: difference from placebo at Week 8, difference in LS means (cLDA) ([1]; OAB Wet subjects): −0.46 | OAB-q Coping Subscore, Change from baseline at week 12, LS Means (SE) [2, 3]: 18.5 (1.49) | OAB-q Coping Subscore, Mean [2, 3]: 81.66 (20.882) | OAB-q Symptom Bother Subscore, Change from baseline at week 12, LS Means [2, 3]: −21.7 | OAB-q Symptom Bother Subscore, Mean [2, 3]: 24.70 | Change from Baseline in PGI-Control, LS Mean ([2]; 75% UUI Responders, Week 4): −0.7 (0.07) | PGI-Control, Mean (SD) ([2]; 75% UUI Responders, Week 4): 2.51 (0.907) | Change from Baseline in PGI-Control, LS Mean ([2]; 75% UUI Responders, Week 8): −1.0 (0.07) | PGI-Control, Mean (SD) ([2]; 75% UUI Responders, Week 8): 2.18 (0.861) | Change from Baseline in PGI-Control, LS Mean ([2]; 75% UUI Responders, Week 12): −1.1 (0.07) | OAB-q Coping Subscore, Change from baseline at week 12, LS Means (SE) ([2]; 75% UUI Responders, Week 12): 18.4 (1.73) | OAB-q Coping Subscore, Mean (SD) ([2]; 75% UUI Responders, Week 12): 83.05 (20.409) | OAB-q Symptom Bother Subscore, Change from Baseline at Week 12, LS Means (SE) ([2]; 75% UUI Responders, Week 12): −22.7 (1.60) | OAB-q Symptom Bother Subscore, Mean (SD) ([2]; 75% UUI Responders, Week 12): 22.59 (17.919) | PGI-Control, Mean (SD) ([2]; 75% UUI Responders, Week 12): 2.05 (0.862) | OAB-q Concern Subscore, Week 12 Mean (SD) ([2]; Week 12): 80.93 (21.467) | OAB-q Concern responders, Difference from Placebo ([2]; Week 12): 7.2 | OAB-q Concern, Active - Placebo LS Means Difference ([2]; Week 12): 4.4 | OAB-q Concern, change from baseline LS Means (SE) ([2]; Week 12): 14.7(1.32) | OAB-q Coping Score, Active - Placebo LS Means Difference ([2]; Week 12): 3.1 | OAB-q Coping Score, change from baseline LS Means (SE) ([2]; Week 12): 15.9 (1.39) | OAB-q Coping Sub score, Week 12 Mean (SD) ([2]; Week 12): 77.77 (23.439) | OAB-q Coping responders, Difference from Placebo ([2]; Week 12): 6.9 | OAB-q HRQL Total Score, Active - Placebo LS Means Difference ([2]; Week 12): 2.9 | OAB-q HRQL Total Score, change from baseline LS Means (SE) ([2]; Week 12): 13.6 (1.19) | OAB-q Sleep Subscore, Week 12 Mean (SD) ([2]; Week 12): 74.25 (23.140) | OAB-q Sleep responders, Difference from Placebo ([2]; Week 12): −0.5 | OAB-q Sleep, Active - Placebo LS Means Difference ([2]; Week 12): 2.6 | OAB-q Sleep, change from baseline LS Means (SE) ([2]; Week 12): 12.9 (1.42) | OAB-q Social Interaction Subscore, Week 12 Mean (SD) ([2]; Week 12): 88.35 (18.214) | OAB-q Social Interaction responders, Difference from Placebo ([2]; Week 12): 2.2 | OAB-q Social Interaction, Active - Placebo LS Means Difference ([2]; Week 12): 0.6 | OAB-q Social Interaction, change from baseline LS Means (SE) ([2]; Week 12): 9.4 (1.03) | OAB-q Symptom Bother Subscore, Week 12 Mean (SD) ([2]; Week 12): 29.33 (19.568) | OAB-q Symptom Bother responders, Difference from Placebo ([2]; Week 12): 8.2 | OAB-q Symptom Bother, Active - Placebo LS Means Difference ([2]; Week 12): −4.6 | OAB-q Symptom Bother, change from baseline LS Means (SE) ([2]; Week 12): −17.4 (1.31) | OAB-q Total HRQL Score, Week 12 Mean (SD) ([2]; Week 12): 80.07 (19.826) | OAB-q Total HRQL responders, Difference from Placebo ([2]; Week 12): 3.1 | OAB-q Symptom Bother responders, % ([2]; Week 12, responder = change from baseline ≤−10): (66.5) % | OAB-q Concern responders, % [2, 4]: (57.0) % | OAB-q Coping responders, % [2, 4]: (61.3) % | OAB-q Sleep responders, % [2, 4]: (51.3) % | OAB-q Social Interaction responders, % [2, 4]: (37.4) % | OAB-q Total HRQL responders, % [2, 4]: (51.8) % | OAB-q Concern responders, Odds Ratio ([2]; Week 12, vs placebo): 1.6 | OAB-q Coping responders, Odds Ratio ([2]; Week 12, vs placebo): 1.5 | OAB-q Sleep responders, Odds Ratio ([2]; Week 12, vs placebo): 1.1 | OAB-q Social Interaction responders, Odds Ratio ([2]; Week 12, vs placebo): 1.2 | OAB-q Symptom Bother responders, Odds Ratio ([2]; Week 12, vs placebo): 1.6 | OAB-q Total HRQL responders, Odds Ratio ([2]; Week 12, vs placebo, logistic regression): 1.3
